In US11040963B2 (priority 2017, dated 2021):

Key:
H1N1 A/California/07/09 = experiment: microbe, parasite or virus in culture; assay type: cell-based, influenza A virus; conditions: Influenza A virus, H1N1, MDCK, 96 h, read-out: Virus neutralization assay (VNA), pEC50 H1N1 A/California/07/09 (converted)
[1] = target: HA H1 A/California/07/09 (Influenza A virus (A/California/07/2009(H1N1)), UniProt C3W5X2); experiment: biochemical; conditions: Competition binding (AlphaLISA), pIC50 H1 A/California/07/09
[2] = target: HA H5 A/Vietnam/1203/04 (Influenza A virus (A/Vietnam/1203/2004(H5N1)), UniProt Q5EP31); experiment: biochemical; conditions: Competition binding (AlphaLISA), pIC50 H5 A/Vietnam/1203/04
in vitro = conditions: dog, Cytotoxicity (pCC50) MDCK
[3] = target: HA H1 A/New Caledonia/20/99 (Influenza A virus (A/New Caledonia/20/1999(H1N1)), UniProt Q6WG00); experiment: biochemical; conditions: Competition binding (AlphaLISA), pIC50 H1 A/New Caledonia/20/99
H5N1 A/Vietnam/1203/04 = experiment: microbe, parasite or virus in culture; assay type: cell-based, influenza A virus; conditions: Influenza A virus, H5N1, MDCK, 96 h, read-out: Virus neutralization assay (VNA), pEC50 H5N1 A/Vietnam/1203/04, MDCK cells, 96 h, CPE by ATPlite (converted); average of repeats
[4] = test system: H1N1 A/New Caledonia/20/99; experiment: microbe, parasite or virus in culture; assay type: cell-based, influenza A virus; conditions: Influenza A virus, H1N1, MDCK, 96 h, read-out: Virus neutralization assay (VNA), pEC50 H1N1 A/New Caledonia/20/99 (converted)

Row | SMILES | EC50 (H1N1 A/California/07/09) | IC50 [1] | IC50 [2] | CC50 (in vitro) | IC50 [3] | EC50 (H5N1 A/Vietnam/1203/04) | EC50 [4]
1 | COC(=O)C(c1ccccc1)N1CCN(C(=O)c2cccc(-c3nc4cc(OC5CC5)ccc4o3)c2)CC1 (stereo not drawn) [Example 1, Methyl 2-(4-(3-(5-cyclopropoxybenzo[d]oxazol-2-yl)benzoyl)piperazin-1-yl)-2-phenylacetate] | 2.51 nM | 1.26 nM | 63.1 nM | > 50100 nM | 0.631 nM | 200 nM | 2.51 nM
2 | CC(=O)Nc1ccc2oc(-c3ccnc(C(=O)N4CCN([C@H](c5ccccc5)c5n[nH]c(C)n5)CC4)c3)nc2c1 [Example 2] | 10 nM | 7.94 nM | 158 nM | > 50100 nM | 5.01 nM | 1000 nM | 2.51 nM
3 | COc1nnc([C@@H](c2ccccc2)N2CCN(C(=O)c3cc(-c4nc5cc(OC(F)(F)F)ccc5o4)ccn3)CC2)o1 [Example 4] | 100 nM | 12.6 nM | 100 nM | > 50100 nM | 7.94 nM | 1260 nM | 79.4 nM
4 | CC(=O)Nc1ccc2oc(-c3ccnc(C(=O)N4CCN(C(c5ccccc5)c5n[nH]c(C)n5)CC4)c3)nc2c1 (stereo not drawn) [Example 5] | 15.8 nM | 25.1 nM | 501 nM | > 50100 nM | 15.8 nM | 1260 nM | 6.31 nM
5 | CC(=O)Nc1ccc2oc(-c3cccc(C(=O)N4CCN(C(c5ccccc5)c5n[nH]c(C)n5)CC4)c3)nc2c1 (stereo not drawn) [Example 6] | 20 nM | 20 nM | 501 nM | > 50100 nM | 10 nM | 12600 nM | 6.31 nM
6 | COC(=O)C(c1ccccc1)N1CCN(C(=O)c2cccc(-c3nc4cc(NC(C)=O)ccc4o3)c2)CC1 (stereo not drawn) [Example 7] | 25.1 nM | 6.31 nM | 158 nM | 31600 nM | 3.16 nM | 1580 nM | 25.1 nM
7 | COC(=O)[C@@H](c1ccccc1)N1CCN(C(=O)c2cccc(-c3nc4cc(OC)ccc4o3)c2)CC1 [Example 8] | 39.8 nM | 6.31 nM | 200 nM | > 50100 nM | 3.98 nM | 1260 nM | 31.6 nM
8 | CNc1ccc2oc(-c3cccc(C(=O)N4CCN(C(C(=O)OC)c5ccccc5)CC4)c3)nc2c1 (stereo not drawn) [Example 9] | 63.1 nM | 6.31 nM | 251 nM | 10000 nM | 3.98 nM | 1580 nM | 39.8 nM
9 | COC(=O)C(c1ccccc1)N1CCN(C(=O)c2cccc(-c3nc4cc(N)ccc4o3)c2)CC1 (stereo not drawn) [Example 10] | 79.4 nM | 25.1 nM | 794 nM | 25100 nM | 15.8 nM | 2510 nM | 50.1 nM
10 | COC(=O)C(c1ccccc1)N1CCN(C(=O)c2cccc(-c3nc4cc(N(C)C)ccc4o3)c2)CC1 (stereo not drawn) [Example 11] | 79.4 nM | 7.94 nM | 316 nM | 3980 nM | 6.31 nM | 1260 nM | 50.1 nM
11 | Cc1nnc([C@@H](c2ccccc2)N2CCN(C(=O)c3cc(-c4nc5cc(OC(F)(F)F)ccc5o4)ccn3)CC2)o1 [Example 12] | 39.8 nM | 6.31 nM | 158 nM | 15800 nM | 7.94 nM | 1260 nM | 39.8 nM
12 | COC(=O)C(c1ccccc1)N1CCN(C(=O)c2cccc(-c3nc4cc(OC)ccc4o3)c2)CC1 (stereo not drawn) [Example 13] | 79.4 nM | 7.94 nM | 501 nM | 50100 nM | 6.31 nM | 3160 nM | 50.1 nM
13 | COC(=O)C(c1ccccc1)N1CCN(C(=O)c2cc(-c3nc4ccc(OC)cc4s3)ccn2)CC1 (stereo not drawn) [Example 14] | 126 nM | 20 nM | 126 nM | 15800 nM | 10 nM | 1000 nM | 63.1 nM
14 | CC(=O)Nc1ccc2oc(-c3ccnc(C(=O)N4CCN([C@H](c5ccccc5)c5nnc(C)o5)CC4)c3)nc2c1 [Example 15] | 158 nM | 3.16 nM | 158 nM | > 50100 nM | 6.31 nM | 7940 nM | 39.8 nM
15 | COC(=O)C(c1ccccc1)N1CCN(C(=O)c2cc(-c3nc4cc(C(F)(F)F)ccc4o3)ccn2)CC1 (stereo not drawn) [Example 16] | 79.4 nM | 15.8 nM | 398 nM |  | 15.8 nM | 3160 nM | 79.4 nM
16 | Cc1nnc([C@@H](c2ccccc2)N2CCN(C(=O)c3cc(-c4nc5cc(C(F)(F)F)ccc5o4)ccn3)CC2)o1 [Example 17] | 126 nM | 15.8 nM | 631 nM | 7940 nM | 31.6 nM | 3980 nM | 200 nM
17 | Cc1coc(C(c2ccccc2)N2CCN(C(=O)c3cc(-c4nc5cc(OC(F)(F)F)ccc5o4)ccn3)CC2)n1 (stereo not drawn) [Example 18] | 200 nM | 39.8 nM | 398 nM | > 50100 nM | 20 nM | 20000 nM | 79.4 nM
18 | Cc1cnc(C(c2ccccc2)N2CCN(C(=O)c3cc(-c4nc5cc(OC(F)(F)F)ccc5o4)ccn3)CC2)o1 (stereo not drawn) [Example 20] | 79.4 nM | 12.6 nM | 501 nM | 25100 nM | 20 nM | 7940 nM | 100 nM
19 | COc1nnc(C(c2ccccc2)N2CCN(C(=O)c3cc(-c4nc5cc(OC(F)(F)F)ccc5o4)ccn3)CC2)o1 (stereo not drawn) [Example 21] | 100 nM | 15.8 nM | 794 nM | 12600 nM | 20 nM | 6310 nM | 79.4 nM
20 | COC(=O)C(c1ccccc1)N1CCN(C(=O)c2cccc(-c3nc4cc(OC(F)(F)F)ccc4o3)c2)CC1 (stereo not drawn) [Example 23] | 158 nM | 20 nM | 398 nM | > 50100 nM | 10 nM | 20000 nM | 126 nM
21 | COC(=O)C(c1ccccc1)N1CCN(C(=O)c2cccc(-c3nc4ncccc4o3)c2)CC1 (stereo not drawn) [Example 24] | 158 nM | 63.1 nM | 3160 nM | > 50100 nM | 39.8 nM | 12600 nM | 126 nM
22 | COc1ccc2oc(-c3ccnc(C(=O)N4CCN(C(c5ccccc5)c5nnc(C)o5)CC4)c3)nc2c1 (stereo not drawn) [Example 25] | 63.1 nM | 15.8 nM | 794 nM | 25100 nM | 25.1 nM | 3980 nM | 79.4 nM
23 | COC(=O)[C@@H](c1ccccc1)N1CCN(C(=O)c2cccc(-c3nc4cc(C(F)(F)F)ccc4o3)c2)CC1 [Example 26] | 158 nM | 25.1 nM | 501 nM | > 50100 nM | 20 nM | 7940 nM | 158 nM
24 | Cc1nnc(C(c2ccccc2)N2CCN(C(=O)c3cc(-c4nc5cc(OC(F)(F)F)ccc5o4)ccn3)CC2)o1 (stereo not drawn) [Example 28] | 200 nM | 15.8 nM | 501 nM | 15800 nM | 20 nM | 3980 nM | 158 nM
25 | COC(=O)C(c1ccccc1)N1CCN(C(=O)c2cccc(-c3nc4cc(O)ccc4o3)c2)CC1 (stereo not drawn) [Example 30] | 251 nM | 25.1 nM | 631 nM | 25100 nM | 25.1 nM | 7940 nM | 158 nM
26 | Cc1nnc(C(c2ccccc2)N2CCN(C(=O)c3cc(-c4nc5ccccc5s4)ccc3F)CC2)o1 (stereo not drawn) [Example 48] | 631 nM | 251 nM | 12600 nM |  | 200 nM | > 50100 nM | 316 nM
27 | Cc1nnc(C(c2ccccc2)N2CCN(C(=O)c3cc(-c4nc5ccccc5o4)ccc3F)CC2)o1 (stereo not drawn) [Example 52] | 631 nM | 200 nM | 20000 nM |  | 200 nM | > 50100 nM | 398 nM
28 | Cc1nnc([C@@H](c2ccccc2)N2CCN(C(=O)[C@H]3CCCN(c4nc5cc(C(F)(F)F)ccc5o4)C3)CC2)o1 [Example 96] | 794 nM | 200 nM | 15800 nM |  | 316 nM | 50100 nM | 1000 nM
29 | Cc1nnc(C(c2ccccc2)N2CCN(C(=O)c3ccnc(-c4nc5cc(C(F)(F)F)ccc5o4)c3)CC2)o1 (stereo not drawn) [Example 101] | 2000 nM | 631 nM | 39800 nM |  | 794 nM | > 50100 nM | 1000 nM
30 | Cc1nnc(C(c2ccccc2)N2CCN(C(=O)[C@H]3CCCN(c4nc5cc(C(F)(F)F)ccc5o4)C3)CC2)o1 (stereo partly drawn) [Example 110] | 1260 nM | 398 nM | 50100 nM |  | 794 nM | > 50100 nM | 1260 nM
